Laboratory results published in PubChem BioAssay (NCI).
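Dose response: 5 concentrations. Exposure: 48 h. Format: 96-well plates. Endpoint: linear interpolation; highest concentration if not reached. TGI is the concentration that stops growth completely.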

How the values were obtained:
Assay in all cases: growth of human tumour cells (NCI), 48 h
[1] = system: HOP-92 NSCLC
[2] = system: U251 CNS
[3] = system: SW-620 colon
[4] = system: IGROV1 ovarian
[5] = system: MCF7 breast
[6] = system: MALME-3M melanoma
[7] = system: SR leukemia
[8] = system: OVCAR-4 ovarian
[9] = system: 786-0 renal
[10] = system: NCI/ADR-RES ovarian
[11] = system: HOP-62 NSCLC
[12] = system: PC-3 prostate
[13] = system: MOLT-4 leukemia
[14] = system: SK-MEL-5 melanoma
[15] = system: DU-145 prostate
[16] = system: M14 melanoma
[17] = system: OVCAR-3 ovarian
[18] = system: A498 renal
[19] = system: NCI-H460 lung
[20] = system: NCI-H522 lung
[21] = system: LOX IMVI melanoma
[22] = system: EKVX NSCLC
[23] = system: HCC-2998 colon
[24] = system: BT-549 breast
[25] = system: SK-OV-3 ovarian
[26] = system: OVCAR-5 ovarian
[27] = system: MDA-N
[28] = system: A549 NSCLC
[29] = system: COLO 205 colon
[30] = system: KM12 colon
[31] = system: SK-MEL-28 melanoma
[32] = system: SNB-19 CNS
[33] = system: SK-MEL-2 melanoma
[34] = system: UACC-62 melanoma
[35] = system: HCT-116 colon
[36] = system: SF-539 CNS
[37] = system: HT29 colon
[38] = system: SNB-75 CNS
[39] = system: CAKI-1 renal
[40] = system: UACC-257 melanoma
[41] = system: HCT-15 colon
[42] = system: MDA-MB-231 breast
[43] = system: RPMI-8226 leukemia
[44] = system: OVCAR-8 ovarian
[45] = system: TK-10 renal
[46] = system: NCI-H226 lung
[47] = system: T-47D breast
[48] = system: CCRF-CEM leukemia
[49] = system: MDA-MB-435
[50] = system: UO-31 renal
[51] = system: ACHN renal
[52] = system: SF-295 CNS
[53] = system: NCI-H23 lung
[54] = system: SN12C renal
[55] = system: K-562 leukemia

Measured: TGI

CN1C(=O)c2c(c3c4ccccc4n(C)c3c3c2c2ccccc2n3C)C1=O
> 100 µM: all assays above
